Results from ChEMBL document CHEMBL3286118, “Synthesis and in vitro antitumor activity of novel 2-alkyl-5-methoxycarbonyl-11-methyl-6H-pyrido[4,3-b]carbazol-2-ium and 2-alkylellipticin-2-ium chloride derivatives” (Eur J Med Chem, 2014).

assay: Cytotoxicity against human HeLaS3 cells assessed as cell viability after 24 to 72 hrs by MTT assay; format: functional, cell-based; settings: HeLa S3

Structure (SMILES) | IC50
Cc1c2c[n+](CCOCCN)ccc2c(C)c2c1c1cc(O)ccc1n2C | 17.9 µM
COC(=O)c1c2cc[n+](CCOCCNC(=O)N(C)N=O)cc2c(C)c2c1[nH]c1ccccc12 | 51.9 µM
CNC(=O)NCCC[n+]1ccc2c(C(=O)OC)c3[nH]c4ccccc4c3c(C)c2c1 | 24 µM
Cc1c2c[n+](CCCCCN)ccc2c(C)c2c1c1cc(O)ccc1n2C | 19.3 µM
CNC(=O)NCCCCC[n+]1ccc2c(C)c3c(c(C)c2c1)c1cc(O)ccc1n3C | 32.5 µM
COC(=O)c1c2cc[n+](CCCNC(=O)N(C)N=O)cc2c(C)c2c1[nH]c1ccccc12 | 1.3 µM
COC(=O)c1c2cc[n+](CCCN)cc2c(C)c2c1[nH]c1ccccc12 | 2.5 µM
Cc1c2cc[n+](CCOCCNC(=O)N(C)N=O)cc2c(C)c2c1[nH]c1ccc(O)cc12 | 60 µM
CN(N=O)C(N)=O [N-METHYL-N-NITROSUREA] | > 100 µM
COC(=O)c1c2cc[n+](CCN)cc2c(C)c2c1[nH]c1ccccc12 | 5.8 µM
Cc1c2cc[n+](CCOCCN)cc2c(C)c2c1[nH]c1ccccc12 | 27.8 µM
CNC(=O)NCC[n+]1ccc2c(C(=O)OC)c3[nH]c4ccccc4c3c(C)c2c1 | 6.6 µM
Cc1c2cc[n+](C)cc2c(C)c2c1[nH]c1ccccc12 | 2.9 µM
COC(=O)c1c2cc[n+](CCNC(=O)N(C)N=O)cc2c(C)c2c1[nH]c1ccccc12 | 15 µM
CNC(=O)NCCOCC[n+]1ccc2c(C)c3c(c(C)c2c1)c1cc(O)ccc1n3C | 6.2 µM
CNC(=O)NCCOCC[n+]1ccc2c(C)c3[nH]c4ccc(O)cc4c3c(C)c2c1 | 29.4 µM
Cc1c2cc[n+](CCOCCN)cc2c(C)c2c1[nH]c1ccc(O)cc12 | 17.7 µM
COC(=O)c1c2cc[n+](CCOCCN)cc2c(C)c2c1[nH]c1ccccc12 | 41.3 µM
Cc1c2c[n+](CCOCCNC(=O)N(C)N=O)ccc2c(C)c2c1c1cc(O)ccc1n2C | 18.4 µM
CNC(=O)NCCOCC[n+]1ccc2c(C)c3[nH]c4ccccc4c3c(C)c2c1 | 75.3 µM
Cc1c2ccncc2c(C)c2c1[nH]c1ccccc12 [ELLIPTECINE] | 2.1 µM
